Measurements as given in paper PMC6814738, “Bacterial MgrB peptide activates chemoreceptor Fpr3 in mouse accessory olfactory system and drives avoidance behaviour” (Nature Communications, 2019).
“Also recorded” adds a separate entry of the source. Peptide text beside a SMILES is read from it. * marks the point of attachment. For = O=C*

Experiments:
mouse Fpr3 (Fpr-rs1) = target: T1, mouse Fpr3 (Fpr-rs1) (Mus musculus, UniProt O08790); assay: Heterologous expression / high-throughput Ca2+ imaging agonist screen and sequence selectivity of Fpr3 (Fig. 1a, 2c-e, 2g, 2i); assay type: cell-based; details: for Ca2+ response, mean: mean of n = 3 experiments in triplicate (n = 5 for f-MKKFRW), Fpr3 + Gα16 HEK293T, Fluo-4/AM, buffer C1 pH 7.2, mock 0.059-0.060
T1 construct: expressed in transfected cells; host or cells: HEK293T (DSMZ # ACC-635), transient transfection with jetPEI
T1 sequence (O08790 1-351): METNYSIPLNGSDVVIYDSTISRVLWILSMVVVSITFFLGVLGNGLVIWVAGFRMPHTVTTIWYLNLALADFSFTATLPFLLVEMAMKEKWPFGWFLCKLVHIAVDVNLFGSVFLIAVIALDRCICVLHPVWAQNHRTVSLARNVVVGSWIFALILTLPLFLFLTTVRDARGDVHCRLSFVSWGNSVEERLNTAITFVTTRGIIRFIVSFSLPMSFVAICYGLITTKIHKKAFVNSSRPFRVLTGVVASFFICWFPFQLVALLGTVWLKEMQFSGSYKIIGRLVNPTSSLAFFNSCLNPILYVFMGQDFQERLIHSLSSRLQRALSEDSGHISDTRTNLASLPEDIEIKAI
Summary of the method: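 HEK293T cells were cotransfected with C57BL/6J mouse Fpr3 and Gα16, and Ca2+ responses to synthetic peptides (6–21 residues, >95% purity) were recorded 48 h later by FLIPR with Fluo-4/AM. Peptide stocks of 0.2–1 mM were prepared in buffer C1 (HEPES, pH 7.2).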

mouse Fpr3 = details: cited from earlier work
Protocol: We estimate the fraction of knobs responding to f-MKKFRW as ~0.15%, which is similar to the fraction of cells in the VNE that express Fpr3[30]. Strikingly, the sensitivity and sequence-selectivity profile of these responses was nearly identical to the results that we obtained for heterologously expressed Fpr3. The detection threshold of native VSNs for f-MKKFRW was ≤0.1 µM (Fig. 4f), virtually the same as for Fpr3-expres ... || Given the importance of the olfactory system in a variety of behavioural avoidance and defence mechanisms[14],[62],[63], we reasoned that in vivo detection of MgrB peptide may evoke an avoidance reaction in mice. We devised a behavioural assay[14],[60] in order to determine whether direct nasal contact with MgrB peptide evokes unconditioned, innate avoidance (Fig. 8a and Methods). […] (Fig ... || We used custom-made peptides with a length of 6–21 amino acids to screen for agonists. Sequences of fMet peptides were designed according to motifs present at the N-termini of 15,125 specific bacterial proteins as annotated in UniProt. Peptides were chemically synthesised, purified, and verified by mass spectroscopy (MALDI-TOF) by commercial suppliers. Purity of all peptides was >95%. Source, sequence and purity of each peptide are listed in Supplementary Data 1. Lyophilised peptides were routinely dissolved in the Ca^2+ imaging assay buffer C1 (130 mM NaCl, 10 mM HEPES, 5 mM KCl, 2 mM CaCl2, ...

Molecule: f-MGFFIS [bacterial signal peptide fragment]
- Ca2+ response, mean (mouse Fpr3 (Fpr-rs1); 3 µM, FLIPR): 0.055 ∆F/F
- Ca2+ response, mean (mouse Fpr3 (Fpr-rs1); 30 µM, FLIPR): 0.048 ∆F/F
- activation of heterologously expressed Fpr3, in words (mouse Fpr3): not Fpr3; also recorded: failed to activate heterologously expressed Fpr3

Molecule: CSCC[C@H](NC=O)C(=O)N[C@@H](CCCCN)C(=O)N[C@@H](CCCCN)C(=O)N[C@@H](Cc1ccccc1)C(=O)N[C@@H](CCCNC(=N)N)C(=O)N[C@@H](Cc1c[nH]c2ccccc12)C(=O)O [f-MKKFRW] (For-MKKFRW-OH)
- activation of Fpr3 in agonist screen, in words (mouse Fpr3 (Fpr-rs1); 3 µM, Fpr3-transfected HEK293T, Gα16, Fluo-4/AM, FLIPR, Fig. 1a): activated Fpr3-expressing HEK293T
- Ca2+ response, mean (mouse Fpr3 (Fpr-rs1); 3 µM, FLIPR): 0.110 ∆F/F
- Fpr3 activation by sequence variants, in words (mouse Fpr3 (Fpr-rs1); 30 µM (3 or 30 µM for elongated peptides), Fpr3-transfected HEK293T, Fig. 2c-e, i): Fpr3 recognises the core agonist f-MKKFRW
- Ca2+ response, mean (mouse Fpr3 (Fpr-rs1); 30 µM, FLIPR): 0.423 ∆F/F
- specific Ca2+ response of Fpr3 in agonist screen, in words (mouse Fpr3 (Fpr-rs1); 3 or 30 µM, Fpr3-transfected HEK293T, panel of 41 peptides, Fig. 1a): caused Fpr3 activation
